Consider 19 compounds from patent publication US20250236616A1, “IMMUNOMODULATING AZALIDES” (Zoetis Services LLC, priority 2021, published 2025).

Holding throughout (type): cell-based
One test relates to TNF-α. The test is described as follows: Whole bovine blood assay, LPS-induced TNF-α. The following applies: fresh whole bovine blood, LPS stimulant; top drug concentration 250 μM. In a few lines:
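Fresh heparinized bovine whole blood was preincubated with compound 4 h at 37 °C, then stimulated with LPS (final 1 μg/mL) for 18 h at 37 °C. Plasma TNF-α was quantified by MSD U-Plex chemiluminescent immunoassay, normalized to total protein (BCA), and IC50 taken for LPS-induced TNF-α inhibition.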

For another test, the system named is IL-6. The test is described as follows: Whole bovine blood assay, LPS-induced IL-6. The following applies: fresh whole bovine blood, LPS stimulant; top drug concentration 250 μM.
For another test, the system named is IL-1β. Nature of the test: Whole bovine blood assay, LPS-induced IL-1β (inhibition / overstimulation). The following applies: drug concentration giving overstimulation (OS) of LPS-induced IL-1β, top concentration 250 μM. In a few lines: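 Fresh heparinized bovine whole blood was preincubated with compound at varying concentrations for 4 h at 37 °C, then stimulated with 1 μg/mL LPS for 18 h. Plasma IL-1β was measured by MSD chemiluminescent immunoassay and normalized to total protein. Values cover inhibition and concentration-dependent overstimulation.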

pIC50: −log10 of the molar value. Bounds are passed on as bounds.

Turning to `CCCNC[C@]1(O)[C@H](C)O[C@@H](O[C@H]2[C@H](C)[C@@H](O[C@@H]3O[C@H](C)C[C@H](N(C)S(=O)(=O)Nc4ccc(F)cc4)[C@H]3O)[C@](C)(O)C[C@@H](C)CN[C@H](C)[C@@H](O)[C@](C)(O)[C@@H](CC)OC(=O)[C@@H]2C)C[C@@]1(C)OC` [Example B-53], the pIC50 in the test with TNF-α is 4.07; in the test with IL-6, 4.59. Besides, in the test with IL-1β, the minimal effective concentration turned out to be 16 µM.

Turning to `CCCNC[C@]1(O)[C@H](C)O[C@@H](O[C@H]2[C@H](C)[C@@H](O[C@@H]3O[C@H](C)C[C@H](N(C)S(=O)(=O)c4ccccc4)[C@H]3Oc3ccc(F)cc3)[C@](C)(O)C[C@@H](C)CN[C@H](C)[C@@H](O)[C@](C)(O)[C@@H](CC)OC(=O)[C@@H]2C)C[C@@]1(C)OC` [Example B-109], the pIC50 is 5.05 in the test on TNF-α and 5.00 in the test on IL-6. Besides, the minimal effective concentration with IL-1β was found to be 3 µM.

For the compound `CC[C@H]1OC(=O)[C@H](C)[C@@H](O[C@H]2C[C@@](C)(OC)[C@](O)(CNCCCNC(C)=O)[C@H](C)O2)[C@H](C)[C@@H](O[C@@H]2O[C@H](C)C[C@H](N(C)S(=O)(=O)Nc3ccc(C(F)(F)F)cc3)[C@H]2O)[C@](C)(O)C[C@@H](C)CN[C@H](C)[C@@H](O)[C@]1(C)O` [Example B-88], the pIC50 with TNF-α was 4.66; with IL-6 it was 4.40. In addition, the minimal effective concentration in the test with IL-1β is given as 14 µM.

Take `CC[C@H]1OC(=O)[C@H](C)[C@@H](O[C@H]2C[C@@](C)(OC)[C@](O)(CNCCN3CCCC3)[C@H](C)O2)[C@H](C)[C@@H](O[C@@H]2O[C@H](C)C[C@H](N(C)S(=O)(=O)Nc3ccc(C(F)(F)F)cc3)[C@H]2O)[C@](C)(O)C[C@@H](C)CN[C@H](C)[C@@H](O)[C@]1(C)O` [Example B-68]: the values for the pIC50 in the test on TNF-α and in the test on IL-6 were 5.30 and 4.60, respectively. In addition, the minimal effective concentration with IL-1β was 16 µM.

On to `CCCNC[C@]1(O)[C@H](C)O[C@@H](O[C@H]2[C@H](C)[C@@H](O[C@@H]3O[C@H](C)C[C@H](N(C)S(=O)(=O)N(C)C)[C@H]3O)[C@](C)(O)C[C@@H](C)CN[C@H](C)[C@@H](O)[C@](C)(O)[C@@H](CC)OC(=O)[C@@H]2C)C[C@@]1(C)OC` [Example B-51], for which the pIC50 is 4.42 in the test on TNF-α and 4.21 with IL-6. In the test with IL-1β, this compound returned a minimal effective concentration of 97 µM.

As for `CC[C@H]1OC(=O)[C@H](C)[C@@H](O[C@H]2C[C@@](C)(OC)[C@](O)(CNCCN(C)C)[C@H](C)O2)[C@H](C)[C@@H](O[C@@H]2O[C@H](C)C[C@H](N(C)S(=O)(=O)c3ccc(Cl)cc3)[C@H]2O)[C@](C)(O)C[C@@H](C)CN[C@H](C)[C@@H](O)[C@]1(C)O` [Example B-35], the pIC50 in the test on TNF-α is less than 3.60; with IL-6 it was 4.27. Besides, the minimal effective concentration in the test with IL-1β was 16 µM.

Consider `CC[C@H]1OC(=O)[C@H](C)[C@@H](O)[C@H](C)[C@@H](O[C@@H]2O[C@H](C)C[C@H](N(C)S(=O)(=O)c3ccc(N4CCOCC4)nc3)[C@H]2Oc2ccc(F)cc2)[C@](C)(O)C[C@@H](C)CN[C@H](C)[C@@H](O)[C@]1(C)O` [Example A-21], for which the pIC50 in the test on TNF-α and in the test on IL-6 was 4.80 throughout. For the same compound, the minimal effective concentration in the test with IL-1β is listed as 16 µM.

Consider `CC[C@H]1OC(=O)[C@H](C)[C@@H](O[C@H]2C[C@@](C)(OC)[C@](O)(CN3CCCCC3)[C@H](C)O2)[C@H](C)[C@@H](O[C@@H]2O[C@H](C)C[C@H](N(C)S(=O)(=O)c3ccccc3)[C@H]2Oc2ccccc2)[C@](C)(O)C[C@@H](C)CN[C@H](C)[C@@H](O)[C@]1(C)O` [Example C-53], for which the negative-log IC50 (pIC50) in the test with TNF-α and in the test with IL-6 was 5.70 throughout. In addition, the minimal effective concentration with IL-1β was found to be 6 µM.

With `CC[C@H]1OC(=O)[C@H](C)[C@@H](O[C@H]2C[C@@](C)(OC)[C@](O)(CN3CCN(CC)CC3)[C@H](C)O2)[C@H](C)[C@@H](O[C@@H]2O[C@H](C)C[C@H](N(C)S(=O)(=O)Nc3ccc(C(F)(F)F)cc3)[C@H]2O)[C@](C)(O)C[C@@H](C)CN[C@H](C)[C@@H](O)[C@]1(C)O` [Example C-12], the results for the pIC50 in the test with TNF-α and with IL-6 were 4.89 and 3.85, respectively. Also, the minimal effective concentration in the test on IL-1β was 100 µM.

Turning to `CC[C@H]1OC(=O)[C@H](C)[C@@H](O[C@H]2C[C@@](C)(OC)[C@](O)(CN3CCCCC3)[C@H](C)O2)[C@H](C)[C@@H](O[C@@H]2O[C@H](C)C[C@H](N(C)S(=O)(=O)c3ccccc3)[C@H]2Oc2ccc(Cl)cn2)[C@](C)(O)C[C@@H](C)CN[C@H](C)[C@@H](O)[C@]1(C)O` [Example C-48], the results for the pIC50 with TNF-α and in the test with IL-6 were 5.40 and 5.22, respectively. In the test with IL-1β, the minimal effective concentration was found to be 6 µM.

With `CC[C@H]1OC(=O)[C@H](C)[C@@H](O)[C@H](C)[C@@H](O[C@@H]2O[C@H](C)C[C@H](N(C)S(=O)(=O)c3ccccc3)[C@H]2Oc2ccc(F)cc2)[C@](C)(O)C[C@@H](C)CN[C@H](C)[C@@H](O)[C@]1(C)O` [Example A-23], the negative-log IC50 (pIC50) in the test on TNF-α is 4.44; in the test on IL-6, 4.66. In the test on IL-1β, this compound displayed a minimal effective concentration of 16 µM.

Take `CC[C@H]1OC(=O)[C@H](C)[C@@H](O)[C@H](C)[C@@H](O[C@@H]2O[C@H](C)C[C@H](N(C)S(=O)(=O)c3cccs3)[C@H]2Oc2ccc(F)cc2)[C@](C)(O)C[C@@H](C)CN[C@H](C)[C@@H](O)[C@]1(C)O` [Example A-22]: the pIC50 in the test on TNF-α was 4.52; in the test with IL-6, 4.66. Also, the minimal effective concentration in the test on IL-1β amounted to 16 µM.

`CC[C@H]1OC(=O)[C@H](C)[C@@H](O)[C@H](C)[C@@H](O[C@@H]2O[C@H](C)C[C@H](N(C)S(=O)(=O)c3cc4ccccc4o3)[C@H]2Oc2ccc(F)cc2)[C@](C)(O)C[C@@H](C)CN[C@H](C)[C@@H](O)[C@]1(C)O` [Example A-24]: the pIC50 is 4.52 with TNF-α and 4.59 in the test with IL-6. This compound registered a minimal effective concentration with IL-1β of 19 µM.

As to `CCCNC[C@]1(O)[C@H](C)O[C@@H](O[C@H]2[C@H](C)[C@@H](O[C@@H]3O[C@H](C)C[C@H](N(C)S(=O)(=O)N4CCc5ccccc5C4)[C@H]3O)[C@](C)(O)C[C@@H](C)CN[C@H](C)[C@@H](O)[C@](C)(O)[C@@H](CC)OC(=O)[C@@H]2C)C[C@@]1(C)OC` [Example B-42], the pIC50 with TNF-α was 4.89; in the test with IL-6 it was 5.10. In addition, the minimal effective concentration in the test with IL-1β is on record as 2 µM.

As for `CCCNC[C@]1(O)[C@H](C)O[C@@H](O[C@H]2[C@H](C)[C@@H](O[C@@H]3O[C@H](C)C[C@H](N(C)S(=O)(=O)c4nccn4C)[C@H]3Oc3ccc(Cl)cc3)[C@](C)(O)C[C@@H](C)CN[C@H](C)[C@@H](O)[C@](C)(O)[C@@H](CC)OC(=O)[C@@H]2C)C[C@@]1(C)OC` [Example B-136], the pIC50 with TNF-α is 5.10; with IL-6, 5.05. This compound also yielded a minimal effective concentration with IL-1β of 6 µM.

As for `CCCNC[C@]1(O)[C@H](C)O[C@@H](O[C@H]2[C@H](C)[C@@H](O[C@@H]3O[C@H](C)C[C@H](N(C)S(=O)(=O)c4ccc(F)cc4)[C@H]3Oc3ccc(F)cc3)[C@](C)(O)C[C@@H](C)CN[C@H](C)[C@@H](O)[C@](C)(O)[C@@H](CC)OC(=O)[C@@H]2C)C[C@@]1(C)OC` [Example B-108], the results for the pIC50 in the test with TNF-α and in the test on IL-6 were 5.30 and 5.00, respectively. In addition, the minimal effective concentration with IL-1β amounted to 6 µM.

With `CC[C@H]1OC(=O)[C@H](C)[C@@H](O)[C@H](C)[C@@H](O[C@@H]2O[C@H](C)C[C@H](N(C)S(=O)(=O)c3cnc4n3CCC4)[C@H]2Oc2ccc(F)cc2)[C@](C)(O)C[C@@H](C)CN[C@H](C)[C@@H](O)[C@]1(C)O` [Example A-28], the negative logarithm of the IC50 (pIC50) with TNF-α is less than 3.60; with IL-6, 3.92. This compound returned a minimal effective concentration in the test with IL-1β of 81 µM.

For the compound `CCCNC[C@]1(O)[C@H](C)O[C@@H](O[C@H]2[C@H](C)[C@@H](O[C@@H]3O[C@H](C)C[C@H](N(C)S(=O)(=O)c4nccn4C)[C@H]3Oc3c(C)cccc3F)[C@](C)(O)C[C@@H](C)CN[C@H](C)[C@@H](O)[C@](C)(O)[C@@H](CC)OC(=O)[C@@H]2C)C[C@@]1(C)OC` [Example B-110], the pIC50 with TNF-α was 3.81; in the test on IL-6, 4.12. In the test on IL-1β, this compound returned a minimal effective concentration of 18 µM.

On to `CCCNC[C@]1(O)[C@H](C)O[C@@H](O[C@H]2[C@H](C)[C@@H](O[C@@H]3O[C@H](C)C[C@H](N(C)S(=O)(=O)NC)[C@H]3O)[C@](C)(O)C[C@@H](C)CN[C@H](C)[C@@H](O)[C@](C)(O)[C@@H](CC)OC(=O)[C@@H]2C)C[C@@]1(C)OC` [Example B-55], for which the pIC50 with TNF-α was less than 3.60; with IL-6 it was less than 4.49. The compound further registered a minimal effective concentration in the test with IL-1β of 26 µM.

Broadly, the pIC50 is the negative decadic logarithm of the IC50, by convention in mol/L. A higher pIC50 goes with a small IC50. As usually defined, the minimal effective concentration is the smallest amount tested that counted as effective.
